Source: paper PMC3021320 (FEBS letters, 2010)

Biological target: T1, Janus kinase 3 (JAK3) (Homo sapiens, UniProt P52333)
T1 sequence (P52333 1-1124): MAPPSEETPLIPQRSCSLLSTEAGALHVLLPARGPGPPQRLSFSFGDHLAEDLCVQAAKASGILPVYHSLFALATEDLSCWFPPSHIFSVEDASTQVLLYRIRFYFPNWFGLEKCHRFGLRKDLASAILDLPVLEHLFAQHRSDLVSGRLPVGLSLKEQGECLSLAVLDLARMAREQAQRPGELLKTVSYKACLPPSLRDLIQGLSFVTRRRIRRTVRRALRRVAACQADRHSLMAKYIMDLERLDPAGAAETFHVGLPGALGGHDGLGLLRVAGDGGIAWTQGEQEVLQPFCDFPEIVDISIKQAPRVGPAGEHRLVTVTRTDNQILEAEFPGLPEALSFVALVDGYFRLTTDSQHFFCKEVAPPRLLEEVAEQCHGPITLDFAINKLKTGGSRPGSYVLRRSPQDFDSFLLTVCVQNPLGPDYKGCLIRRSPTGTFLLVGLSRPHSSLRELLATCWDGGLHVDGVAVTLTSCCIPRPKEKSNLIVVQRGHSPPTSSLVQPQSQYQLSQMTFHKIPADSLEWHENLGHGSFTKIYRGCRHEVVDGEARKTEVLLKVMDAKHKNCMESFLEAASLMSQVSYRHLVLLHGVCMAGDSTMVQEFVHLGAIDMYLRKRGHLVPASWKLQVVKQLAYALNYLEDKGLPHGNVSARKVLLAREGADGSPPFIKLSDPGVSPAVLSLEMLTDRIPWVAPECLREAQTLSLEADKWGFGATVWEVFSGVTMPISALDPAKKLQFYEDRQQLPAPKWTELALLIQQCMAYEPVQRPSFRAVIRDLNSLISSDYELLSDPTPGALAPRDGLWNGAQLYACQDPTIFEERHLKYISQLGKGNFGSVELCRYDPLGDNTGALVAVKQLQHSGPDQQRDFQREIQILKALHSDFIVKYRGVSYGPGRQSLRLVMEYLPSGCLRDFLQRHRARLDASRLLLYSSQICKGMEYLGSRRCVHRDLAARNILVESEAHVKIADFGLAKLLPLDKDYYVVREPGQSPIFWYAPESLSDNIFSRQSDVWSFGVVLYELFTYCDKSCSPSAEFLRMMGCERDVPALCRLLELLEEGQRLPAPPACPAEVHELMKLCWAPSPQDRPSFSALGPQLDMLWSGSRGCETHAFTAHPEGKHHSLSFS
Test: kinase assay
Type: cell-based

Q: O=c1cc(-c2ccc(O)cc2)oc2cc(O)cc(O)c12 [apigenin] was tested. Which IC50 did it give?
A: Its IC50 is 1.3 nM.
